Results: patent US10723726B2, “Solid forms of (Z)-4-(5-((3-benzyl-4-oxo-2-thioxothiazolidin-5-ylidene)methyl)furan-2-yl)benzoic acid” (GB006, INC., priority 2015, dated 2020)
“Also recorded” adds a separate entry of the source. Where two headings read alike, the source gives them in different places.

How the values were obtained:
[1] = Solubility estimation by aliquot addition and temperature cycling; type: physicochemical; conditions: for solubility: thermodynamic from solid, 20° C., read-out: Approx. solubility
Procedure: Aliquots of the test solvent were added to an accurately weighed sample (−10 mg) of LA1 at ambient temperature. The aliquot volumes were typically 200-1000 μL. Complete dissolution of the test material was determined by visual inspection. The solubility was estimated from these experiments based on the total solvent used to provide complete dissolution.
First, the samples were heated from 20° C. to within 3° C. of solvent boiling point (or 100° C., whichever was lower) at 0.5° C./minute; then cooled to 20° C. at 0.2° C./minute while stirring at 800 rpm.
From the infrared (IR) transmission data of the sample vials, dissolution and precipitation events were recorded as the point of complete transmission of IR and the onset of turbidity by IR respectively. Selected samples were also agitated on an orbital shaker at 50° C. and visually observed for dissolution.

leukocytes = conditions: mice; cited from earlier work

For `O=C(O)c1ccc(-c2ccc(/C=C3\SC(=S)N(Cc4ccccc4)C3=O)o2)cc1` [LA1, (Z)-4-(5-((3-benzyl-4-oxo-2-thioxothiazolidin-5-ylidene)methyl)furan-2-yl)benzoic acid], the dissolution upon heating ([1]; DMF, 73° C.) was 10 mg/mL, the “solubility by aliquot addition, overall” value ([1]; all solvents and solvent mixtures tested) was “insoluble in all solvents tested; also recorded: poor solubility in all solvents tested” and the solubility ([1]; aqueous with cosolvent or surfactant or cyclodextrin, DMF:water (1:1)) was less than 10000 µg/mL. It also gave a solubility ([1]; organic solvent or mixture, DMF:MeOH (1:1)) of less than 10000 µg/mL, a solubility ([1]; organic solvent or mixture, DMF:THF (1:1)) of less than 7000 µg/mL and a solubility ([1]; organic solvent or mixture, MeOH:ACN:dioxane (1:1:1)) of less than 10000 µg/mL. For the same compound, the solubility ([1]; organic solvent or mixture, MeOH:acetone (1:1)) was less than 10000 µg/mL, the solubility ([1]; organic solvent or mixture, THF:Acetone (1:1)) was less than 10000 µg/mL and the solubility ([1]; organic solvent or mixture, THF:MeOH (1:1)) was less than 10000 µg/mL. The solubility ([1]; organic solvent or mixture, THF) was less than 10000 µg/mL, the solubility ([1]; organic solvent or mixture, acetone) was less than 10000 µg/mL and the solubility ([1]; organic solvent or mixture, acetonitrile) was less than 10000 µg/mL. It also gave a solubility ([1]; organic solvent or mixture, anisole) of less than 10000 µg/mL, a solubility ([1]; organic solvent or mixture, dichloromethane) of less than 10000 µg/mL and a solubility ([1]; organic solvent or mixture, dimethylformamide) of less than 10000 µg/mL. For the same compound, the solubility ([1]; organic solvent or mixture, hexafluoroisopropanol) was less than 10000 µg/mL, the solubility ([1]; organic solvent or mixture, methanol) was less than 10000 µg/mL and the “recruitment of leukocytes during acute peritonitis” value (leukocytes) was “reduce recruitment of leukocytes”.
